Results from patent publication US8980902B2, “Poly (ADP-ribose) polymerase (PARP) inhibitors” (Takeda Pharmaceutical Company Limited, priority 2009, dated 2015).

How the values were obtained:
Jurkat cell line = test: PARP cellular chemopotentiation assay (MTS viability, with and without Temozolomide); assay type: cell-based; conditions: Chemopotentiation factor: ratio of EC50 for cell viability without and with 100 μM TMZ, Jurkat cells, 96 hours of treatment
Description: Potentiation Factor (PF50) Determination from PARP Cellular Chemopotentiation Assay
Jurkat cell line was maintained according to the supplier (American Type Culture Collection (Rockville, Md.)). Cells were seeded in 96-well tissue culture microplates at 10,000 cells per well and cultured for 24 hours prior to addition of compounds, TMZ (Temozolomide) or DMSO (dimethylsulfoxide) vehicle. After 96 hours of treatment, the conversion of MTS ([3-(4,5-dimethylthiazol-2-yl)-5-(3-carboxymethoxyphenyl)-2-(4-sulfophenyl)-2H-tetrazolium, inner salt], Promega, Madison, Wis.) by metabolically active cells was determined through measuring the OD490 nm with a Spectramax microplate reader (Molecular Devices, San Diego, Calif.). To generate concentration-response curves, cells were treated in duplicate with a range of serial compound dilutions (final DMSO concentration was 0.5%) in the absence or presence of 100 μM TMZ chemoreagent. The percentage of viable cells per well was calculated by correction for background and normalizing against DMSO-treated cells. EC50 values for inhibition of cell viability were calculated using XLfit4 MicroSoft Excel curve-fitting software. Chemopotentiation factor PF50 was calculated as the ratio of EC50 values of cells co-treated without and with TMZ, respectively.
(§1) Here, pIC50=−log10 IC50, where IC50 is the molar concentration of the compound at 50% inhibition.

PARP = biological target: T1, PARP (Homo sapiens, UniProt P09874); test: PARP ELISA (ELISA-based colorimetric PARP/Apoptosis Assay kit), inhibition of PARP catalytic activity; assay type: biochemical; conditions: pIC50 = -log10 IC50 (molar); 0.1 nM PARP stock, 100 μM NAD+ stock with activated DNA, 10 min catalysis
T1 construct: purchased Trevigen 4684-096-01 (enzyme); kit 4684-096-K HT
Description: Inhibition Constant (IC50) from PARP ELISA
Inhibition of PARP catalytic activity was determined by use of an ELISA-based colorimetric PARP/Apoptosis Assay kit (part number 4684-096-K HT, Trevigen). To each histone coated well in the 96-well plate supplied by the manufacturer (part number 4677-096-P) is added 39 μL of PARP buffer (part number 4671-096-02) and 1 μL of test compound dissolved in DMSO (diluted serially 3-fold 11 times). After mixing, 5 μL of 0.1 nM PARP (part number 4684-096-01) is added and the solution allowed to stand at ambient temperature for 10 minutes. PARP catalysis is initiated with the addition of 5 μL of 100 μM β-nicotinamide adenine dinucleotide (NAD+) (part number 4684-096-02) with activated DNA (part number 4671-096-06). After 10 minutes of catalysis the reaction is quenched by solvent aspiration followed by irrigation of the assay wells 4 times with phosphate buffered saline (PBS) containing 0.1% t-octylphenoxypolyethoxyethanol (Triton® X-100). Mouse Anti-poly ADP ribose (PAR) monoclonal antibody, goat antimouse immunoglobulin G (IgG)-horse radish peroxidase (HRP) conjugate and HRP substrate are added according to the manufacture's specifications to generate a colorimetric signal proportional to PARP catalytic activity. An IC50 for the test compound is calculated from the equation Absorbance=(Amax−background)/(1+([cmpd]/IC50)^n)+background fit to the 12 point test compound concentration gradient via nonlinear least squares.
as §1

T1 sequence (P09874 whole entry): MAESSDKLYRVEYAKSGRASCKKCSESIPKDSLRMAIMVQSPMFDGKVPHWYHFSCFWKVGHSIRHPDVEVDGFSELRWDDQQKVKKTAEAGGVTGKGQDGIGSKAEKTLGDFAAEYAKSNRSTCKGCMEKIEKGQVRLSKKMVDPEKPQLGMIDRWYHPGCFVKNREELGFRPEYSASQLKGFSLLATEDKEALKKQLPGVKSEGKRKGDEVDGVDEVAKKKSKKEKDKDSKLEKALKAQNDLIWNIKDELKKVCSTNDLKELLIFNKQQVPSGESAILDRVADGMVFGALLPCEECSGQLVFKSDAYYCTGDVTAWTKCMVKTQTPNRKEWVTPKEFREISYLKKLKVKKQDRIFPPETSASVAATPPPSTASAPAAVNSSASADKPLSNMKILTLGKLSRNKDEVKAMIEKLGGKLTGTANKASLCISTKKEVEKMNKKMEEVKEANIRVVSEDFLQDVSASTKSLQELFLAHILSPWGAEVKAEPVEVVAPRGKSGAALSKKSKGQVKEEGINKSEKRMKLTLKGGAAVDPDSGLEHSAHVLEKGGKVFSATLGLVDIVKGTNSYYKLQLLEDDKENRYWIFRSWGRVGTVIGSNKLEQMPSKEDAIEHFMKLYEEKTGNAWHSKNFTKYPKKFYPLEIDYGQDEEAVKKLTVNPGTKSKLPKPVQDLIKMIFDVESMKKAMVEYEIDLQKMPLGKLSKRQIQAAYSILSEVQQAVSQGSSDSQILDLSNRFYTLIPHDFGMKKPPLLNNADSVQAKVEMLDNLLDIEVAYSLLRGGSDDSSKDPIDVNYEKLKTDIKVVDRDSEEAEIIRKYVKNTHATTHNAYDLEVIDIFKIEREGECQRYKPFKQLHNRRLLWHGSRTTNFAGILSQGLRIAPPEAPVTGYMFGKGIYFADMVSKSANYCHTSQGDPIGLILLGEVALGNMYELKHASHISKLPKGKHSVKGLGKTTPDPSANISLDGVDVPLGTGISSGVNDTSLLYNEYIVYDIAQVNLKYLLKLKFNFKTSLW

Row | IC50 (PARP) [nM] | Compound | PF50 (Jurkat cell line)
1 | ≤ 10 | CCNC(=O)c1ccc(N2CCN(Cc3cnc4c(c3)[nH]c(=O)n3cccc43)CC2)cc1 [Example 2, N-ethyl-4-(4-((6-oxo-5,6-dihydropyrido[2,3-e]pyrrolo[1,2-c]pyrimidin-3-yl)methyl)piperazin-1-yl)benzamide] | >1000
2 | ≤ 10 | CNC(=O)c1ccc(N2CCN(Cc3cnc4c(c3)[nH]c(=O)n3cccc43)CC2)cc1 [Example 3, N-methyl-4-(4-((6-oxo-5,6-dihydropyrido[2,3-e]pyrrolo[1,2-c]pyrimidin-3-yl)methyl)piperazin-1-yl)benzamide] | >24000
3 | ≤ 10 | O=C(NC1CC1)c1ccc(N2CCN(Cc3cnc4c(c3)[nH]c(=O)n3cccc43)CC2)cc1 [Example 4, N-cyclopropyl-4-(4-((6-oxo-5,6-dihydropyrido[2,3-e]pyrrolo[1,2-c]pyrimidin-3-yl)methyl)piperazin-1-yl)benzamide] | >1000

Second part, the compound before the results:

Row | Compound | IC50 (PARP) [nM] | PF50 (Jurkat cell line)
4 | CNC(=O)c1ccc(N2CCN(Cc3cnc4c(c3)[nH]c(=O)n3cccc43)CC2)c(Cl)c1 [Example 5, 3-chloro-N-methyl-4-(4-((6-oxo-5,6-dihydropyrido[2,3-e]pyrrolo[1,2-c]pyrimidin-3-yl)methyl)piperazin-1-yl)benzamide] | ≤ 10 | >63
5 | CCNC(=O)c1ccc(N2CCN(Cc3cnc4c(c3)[nH]c(=O)n3cccc43)CC2)c(Cl)c1 [Example 6, 3-chloro-N-ethyl-4-(4-((6-oxo-5,6-dihydropyrido[2,3-e]pyrrolo[1,2-c]pyrimidin-3-yl)methyl)piperazin-1-yl)benzamide] | ≤ 10 | >1000
6 | CNC(=O)c1ccc(N2CCN(Cc3cnc4c(c3)[nH]c(=O)n3cccc43)CC2)c(C)c1 [Example 7, N,3-dimethyl-4-(4-((6-oxo-5,6-dihydropyrido[2,3-e]pyrrolo[1,2-c]pyrimidin-3-yl)methyl)piperazin-1-yl)benzamide] | ≤ 10 | >900
7 | CCNC(=O)c1ccc(N2CCN(Cc3cnc4c(c3)[nH]c(=O)n3cccc43)CC2)c(C)c1 [Example 8, N-ethyl-3-methyl-4-(4-((6-oxo-5,6-dihydropyrido[2,3-e]pyrrolo[1,2-c]pyrimidin-3-yl)methyl)piperazin-1-yl)benzamide] | ≤ 10 | >1600
8 | CNC(=O)c1ccc(N2CCN(Cc3cnc4c(c3)[nH]c(=O)n3cccc43)CC2)c(F)c1 [Example 9, 3-fluoro-N-methyl-4-(4-((6-oxo-5,6-dihydropyrido[2,3-e]pyrrolo[1,2-c]pyrimidin-3-yl)methyl)piperazin-1-yl)benzamide] | ≤ 10 | >16
9 | CCNC(=O)c1ccc(N2CCN(Cc3cnc4c(c3)[nH]c(=O)n3cccc43)CC2)c(F)c1 [Example 10, N-ethyl-3-fluoro-4-(4-((6-oxo-5,6-dihydropyrido[2,3-e]pyrrolo[1,2-c]pyrimidin-3-yl)methyl)piperazin-1-yl)benzamide] | ≤ 10 | >60
